Assay results taken from ChEMBL document CHEMBL4476880, “beta-arrestin effectors and compositions and methods of use thereof” (2013).
Activity calls are given as the source filed them. The calls are words filed in the database; no cut-off is given here.

What was measured:
Canis familiaris [1] = test: Suppression of right arterial pressure in paced dog model of acute heart failure at 0.01 to 100 ug/kg/min dosed as dose escalation regime with duration of 30 mins for each dose; assay type: functional, organism-based; settings: Canis lupus familiaris
Rattus norvegicus [2] = test: Effect on vascular and cardiac function in normal anesthetized rat assessed as reduction in vaso-constriction at 0.1 to 10 ug/kg/min, iv; assay type: functional, organism-based
Rattus norvegicus [3] = test: Effect on heart rate in normal anesthetized rat at 0.1 to 10 ug/kg/min, iv; assay type: ADME, organism-based; settings: in vivo
Rattus norvegicus [4] = test: Effect on vascular and cardiac function in normal anesthetized rat assessed as preservation of pre-recruitable stroke work at 0.1 to 10 ug/kg/min, iv; assay type: functional, organism-based
Canis familiaris [5] = test: Increase in renal blood flow in paced dog model of acute heart failure at 0.01 to 100 ug/kg/min dosed as dose escalation regime with duration of 30 mins for each dose; assay type: functional, organism-based; settings: Canis lupus familiaris
Canis familiaris [6] = test: Effect on renal function parameters in paced dog model of acute heart failure assessed as maintenance of glomerular filtration rate at 0.01 to 100 ug/kg/min dosed as dose escalation regime with duration of 30 mins for each dose; assay type: functional, organism-based; settings: Canis lupus familiaris
Canis familiaris [7] = test: Increase in urine output in paced dog model of acute heart failure at 0.01 to 100 ug/kg/min dosed as dose escalation regime with duration of 30 mins for each dose; assay type: functional, organism-based; settings: Canis lupus familiaris
Canis familiaris [8] = test: Effect on renal function parameters in paced dog model of acute heart failure assessed as maintenance of urine potassium at 0.01 to 100 ug/kg/min dosed as dose escalation regime with duration of 30 mins for each dose; assay type: functional, organism-based; settings: Canis lupus familiaris
Rattus norvegicus [9] = test: Effect on vascular and cardiac function in normal anesthetized rat assessed as preservation of stroke volume at 0.1 to 10 ug/kg/min, iv; assay type: functional, organism-based
Canis familiaris [10] = test: Suppression of mean arterial pressure in paced dog model of acute heart failure at 0.01 to 100 ug/kg/min dosed as dose escalation regime with duration of 30 mins for each dose; assay type: functional, organism-based; settings: Canis lupus familiaris
Canis familiaris [11] = test: Increase in urine sodium excretion in paced dog model of acute heart failure at 0.01 to 100 ug/kg/min dosed as dose escalation regime with duration of 30 mins for each dose; assay type: functional, organism-based; settings: Canis lupus familiaris
Canis familiaris [12] = test: Preservation of cardiac output in paced dog model of acute heart failure at 0.01 to 100 ug/kg/min dosed as dose escalation regime with duration of 30 mins for each dose; assay type: functional, organism-based; settings: Canis lupus familiaris
Canis familiaris [13] = test: Suppression of renal vascular resistance in paced dog model of acute heart failure at 0.01 to 100 ug/kg/min dosed as dose escalation regime with duration of 30 mins for each dose; assay type: functional, organism-based; settings: Canis lupus familiaris
Rattus norvegicus [14] = test: Effect on vascular and cardiac function in normal anesthetized rat assessed as increase in slope of end systolic pressure volume relationship at 0.1 to 10 ug/kg/min, iv; assay type: functional, organism-based
Canis familiaris [15] = test: Suppression of systemic vascular resistance in paced dog model of acute heart failure at 0.01 to 100 ug/kg/min dosed as dose escalation regime with duration of 30 mins for each dose; assay type: functional, organism-based; settings: Canis lupus familiaris
Rattus norvegicus [16] = test: Effect on vascular and cardiac function in normal anesthetized rat assessed as reduction in mean arterial pressure at 0.1 to 10 ug/kg/min, iv; assay type: functional, organism-based
Canis familiaris [17] = test: Suppression of pulmonary capillary wedge pressure in paced dog model of acute heart failure at 0.01 to 100 ug/kg/min dosed as dose escalation regime with duration of 30 mins for each dose; assay type: functional, organism-based; settings: Canis lupus familiaris

With `CC[C@H](C)[C@H](NC(=O)[C@H](Cc1ccc(O)cc1)NC(=O)[C@@H](NC(=O)[C@H](CCCNC(=N)N)NC(=O)CNC)C(C)C)C(=O)N[C@@H](Cc1cnc[nH]1)C(=O)N1CCC[C@H]1C(=O)N[C@H](C)C(=O)O` [TRV-120027] the Activity (Canis familiaris [1]) was “Dose-dependent effect”, the Activity (Rattus norvegicus [2]) was “Active” and the Activity (Rattus norvegicus [3]) was “Non-Toxic”. The Activity (Rattus norvegicus [4]) was “Active”, the Activity (Canis familiaris [5]) was “Dose-dependent effect” and the Activity (Canis familiaris [6]) was “Dose-dependent effect”. For the same compound, the Activity (Canis familiaris [7]) was “Dose-dependent effect”, the Activity (Canis familiaris [8]) was “Dose-dependent effect” and the Activity (Rattus norvegicus [9]) was “Active”. For the same compound, the Activity (Canis familiaris [10]) was “Dose-dependent effect”, the Activity (Canis familiaris [11]) was “Dose-dependent effect” and the Activity (Canis familiaris [12]) was “Dose-dependent effect”. For the same compound, the Activity (Canis familiaris [13]) was “Dose-dependent effect”, the Activity (Rattus norvegicus [14]) was “Active” and the Activity (Canis familiaris [15]) was “Dose-dependent effect”. For the same compound, the Activity (Rattus norvegicus [16]) was “Dose-dependent effect” and the Activity (Canis familiaris [17]) was “Dose-dependent effect”.
